According to patent US9580749B2, “Dyes and labeled molecules” (Biotium, Inc., priority 2005, dated 2017):
Entries after “also recorded” stand apart in the source; their conditions may differ. One block for each compound: values may come before it.

What was measured:
[1] = tested on: nucleic acid; settings: cited from earlier work
[2] = tested on: salmon sperm DNA; test: Absorbance and fluorescence emission spectra of dyes without or with DNA in PBS buffer; assay type: physicochemical; settings: for red shift of absorbance upon binding to DNA, relative to free dye: 2 mg/ml salmon sperm DNA; for red shift of absorbance upon binding to DNA, relative to free dye / spectra of the free dyes: intramolecular H-dimer (hairpin) formation: PBS buffer; for spectra of the free dyes: intramolecular H-dimer (hairpin) formation: FIG. 5
Protocol: The spectra were normalized to 1 in the absorbance plot. […] The heterodimeric dye AORO-7 comprises a monomeric AO dye and a fluorescent non-nucleic acid rosamine RO dye. Two emission peaks, contributed by AO and RO moieties, respectively, were recorded.

[3] = tested on: amplicons HMBS, RPL4, SDHA, TBP; test: Melting curves of amplicons after qPCR; assay type: biochemical; settings: for melting peaks of the HMBS amplification reaction (primer dimer): HMBS amplicon, FIG. 15
Protocol: SYBR Green I was reported to be advantageous in that the melting temperature of an amplicon could be detected after qPCR amplification. The melting temperature provides valuable information about the amplicon, as it is a function of the size and GC content of the amplicon. No melting temperatures could be collected from TaqMan reactions. Melting curves from four amplicons, i.e., HMBS (SEQ ID NO: 4), RPL4 (SEQ ID NO: 5), SDHA (SEQ ID NO: 6), and TBP (SEQ ID NO: 7) were measured from reactions amplified in the presence of AOAO-12 (Panel A) or SYBR Green (Panel B) and are presented in FIG. 15.
It has been reported that qPCR reactions with SYBR Green I tend to form primer-dimers, and the tendency is closely related to the concentration of SYBR Green I. It has been postulated that SYBR Green I binds to DNA so tightly that it interferes with the performance of Taq DNA polymerase. As AOAO-12 has less affinity to DNA, the interference should be alleviated.

[4] = tested on: salmon sperm DNA or a mixture of single-stranded 20mer oligonucleotide; test: Fluorescence of AOAO-12 in response to different amounts of DNA (microtiter plate reader); assay type: binding; settings: 0.1 μM dye in PBS
Protocol: It can be seen that fluorescence linearly responded to DNA up to 2.0 μg/ml (inset). At higher concentrations of DNA, the response became non-linear.

[5] = Thermo-stability of dye at 96° C. in PCR reaction buffers with PCR products; assay type: physicochemical; settings: 96° C. for 40 minutes
Protocol: Specifically, AOAO-12 was kept in PCR reaction buffers with PCR products. The mixture was heated to 96° C. for 40 minutes. During the heating course, the mixture was brought down to 60° C. briefly to monitor the fluorescence.

[6] = tested on: PCR reaction; test: Real-time PCR (qPCR) amplification of ATPB fragment in pTOPO plasmid with a fluorescent monitoring dye; assay type: biochemical; settings: for inhibition of PCR (Ct delay) by the dye: increasing dye concentration
[7] = stored in Tris buffer at 4° C.; cited from earlier work

SMILES: CN(C)c1ccc2cc3ccc(N(C)C)cc3nc2c1 [AO, acridine orange]
absorption wavelength λabs ([1]; DNA bound): 500 nm
affinity for nucleic acid [1]: very low
extinction coefficient ([1]; in M-1·cm-1 (unit assumed)): > 50,000

red shift of absorbance upon binding to DNA, relative to free dye [2]: 5 nm
new shorter wavelength peak in absorbance ([2]; free dye in PBS buffer, without DNA): 471 nm
SMILES: CN(C)c1ccc2cc3ccc(N(C)C)cc3[n+](CCCCCC(=O)NCCCCCNC(=O)CCCCC[n+]3c4cc(N(C)C)ccc4cc4ccc(N(C)C)cc43)c2c1 [AOAO-7]

SMILES: CN(C)c1ccc2cc3ccc(N(C)C)cc3[n+](CCCCCC(=O)NCCOCCNC(=O)CCCCC[n+]3c4cc(N(C)C)ccc4cc4ccc(N(C)C)cc43)c2c1 [AOAO-12]
melting peaks of the HMBS amplification reaction (primer dimer) [3]: only a single, clean, and specific peak
melting temperatures of amplicons relative to SYBR Green I ([3]; four amplicons, lower than SYBR Green I): about 2 degrees
DNA binding affinity ([3]; relative to SYBR Green I): binds DNA with high affinity but less tightly than SYBR Green I
height of melting peaks ([3]; relative to SYBR Green I): markedly higher
DNA concentration up to which fluorescence responded linearly [4]: up to 2.0 μg/ml
fluorescence bound to double stranded versus single stranded DNA [4]: fluoresces more intensely when bound to double stranded DNA than when bound to single stranded DNA
stability (fluorescence monitored at 60° C.) [5]: stable at 96 °C for 40 minutes substantially without loss of fluorescence
final fluorescence signal strength relative to SYBR Green I ([6]; qPCR, dye at higher usable concentration): several folds higher; also recorded: several times higher
inhibition of PCR (Ct delay) by the dye ([6]; qPCR): without exhibiting inhibition; also recorded: little or no inhibition

absorption peak of rosamine dye component [2]: 600 nm
emission peak of rosamine dye component [2]: ~620 nm
absorption peak of AO component ([2]; DNA): 503 nm
emission peak of AO component ([2]; DNA): 523 nm
SMILES: CC1=CC(C)(C)Nc2cc3c(cc21)C(c1ccc(C(=O)NCCCCCC(=O)NCCCCCNC(=O)CCCCC[n+]2c4cc(N(C)C)ccc4cc4ccc(N(C)C)cc42)cc1)=c1cc2c(cc1O3)=NC(C)(C)C=C2C [AORO-7]

red shift of absorbance upon binding to DNA, relative to free dye [2]: 10 nm
SMILES: CN(C)CCC[n+]1c2cc(N(C)C)ccc2cc2ccc(N(C)C)cc21.[I-] [DMAO]

SMILES: CCCN(CCCN(C)C)c1cc(/C=C2/Sc3ccccc3N2C)c2ccccc2[n+]1-c1ccccc1 [SYBR Green I, reference compound]
melting peaks of the HMBS amplification reaction (primer dimer) [3]: has an extra primer dimer peak
chemical stability on storage [7]: decomposes significantly over the course of a few days
inhibition of PCR (Ct delay) by the dye ([6]; qPCR): exhibited inhibition to PCR reactions; also recorded: significantly inhibits PCR at higher dye concentration

spectra of the free dyes: intramolecular H-dimer (hairpin) formation ([2]; without DNA): has less spectral shift
SMILES: CN1/C(=C/c2cc[n+](CCC[N+](C)(C)CCC[N+](C)(C)CCC[n+]3ccc(/C=C4\Sc5ccccc5N4C)c4ccccc43)c3ccccc23)Sc2ccccc21.[I-].[I-].[I-].[I-] [TOTO-1, reference compound]
inhibition of PCR (Ct delay) by the dye ([6]; qPCR): completely inhibited the PCR reaction

SMILES: C[n+]1c(C=C2C=CN(CCCCCC(=O)NCCNC(=O)CCCCCN3C=CC(=Cc4sc5ccccc5[n+]4C)c4ccccc43)c3ccccc32)sc2ccccc21 [TOTO-3]
spectra of the free dyes: intramolecular H-dimer (hairpin) formation ([2]; without DNA): forms an intramolecular H-dimer, or a hairpin structure

SMILES: C[n+]1c(C=C2C=CN(CCCCCC(=O)CNCCOCCNC(=O)CCCCCN3C=CC(=Cc4sc5ccccc5[n+]4C)c4ccccc43)c3ccccc32)sc2ccccc21 [TOTO-12]
Ct and fluorescence intensity in qPCR relative to TO ([6]; FIG. 11): improved Ct and improved fluorescence intensity relative to TO

SMILES: CN(C)c1ccc2cc3ccc(=[N+](C)C)cc-3oc2c1.[Cl-] [pyronin Y]
absorption maximum [1]: 548 nm
emission maximum [1]: 565 nm
